According to patent US20250264459A1, “IN VITRO ASSAY TO PREDICT CARDIOTOXICITY” (Stemina Biomarker Discovery, Inc., priority 2018, published 2025):
Where a SMILES comes first, the peptide text is derived from it.

Columns and labels:
[1] = tested on: human iPSC-CM (iCell Cardiomyocytes); assay: Dose-response cell viability (CellTiter-Fluor) in iPSC-derived cardiomyocytes, maximum acceptable viability exposure; type: cell-based
Experimental: Metabolomic data was acquired to identify non-cytotoxic exposure levels and identify biomarkers of cardiotoxicity from a dose-response experiment using spent medium of iPSC-CM treated with 53 of the compounds in the training set. Briefly, human iPSC-CM (iCell® Cardiomyocytes, cat #R1007, Cellular Dynamics International) were exposed to eight concentrations of each training set compound. Spent media was collected for LC-MS analysis and cell viability was assessed with the CellTiter-Fluor Cell Viability Assay (Promega). Spent media samples were prepared and analyzed using the methods developed in Specific Aim 1. The spent media samples from iPSC-CM treated with 10 representative cardiotoxic and non-cardiotoxic compounds were analyzed with all four LC-MS methods to rank biological significant secretome features by predictive capacity. […]
The goal of the concentration-response phase of biomarker identification was to identify non-cytotoxic exposure levels that change iPSC-CM metabolism. The method included modeling feature response, calculating maximum acceptable viability (MAVE), determining response at Cmax, and MAVE, reviewing the top 4 responding features, and selecting the highest tested exposure with 90% viability.

[2] = therapeutic total Cmax; cited from earlier work

| SMILES | MAVE (Maximum Acceptable Viability Exposure) ([1]; human) | Cmax Total [2] | MAVE (Maximum Acceptable Viability Exposure) ([1]; highest exposure tested with ≥90% viability, iPSC-CM, eight concentrations) |
| --- | --- | --- | --- |
| Nc1nc2c(ncn2COCCO)c(=O)[nH]1 [Acyclovir] | 100 µM | 6700 nM | – |
| CN(C)CCC=C1c2ccccc2CCc2ccccc21 [Amitriptyline] | 1 µM | 950 nM | – |
| CC1(C)S[C@@H]2[C@H](NC(=O)[C@H](N)c3ccc(O)cc3)C(=O)N2[C@H]1C(=O)O [Amoxicillin] | 100 µM | 17000 nM | – |
| C[C@@H]1[C@H](O)[C@@H](C)/C=C/C=C/C=C/C=C/C=C/C=C/C=C/[C@H](O[C@@H]2O[C@H](C)[C@@H](O)[C@H](N)[C@@H]2O)C[C@@H]2O[C@](O)(C[C@@H](O)C[C@@H](O)[C@H](O)CC[C@@H](O)C[C@@H](O)CC(=O)O[C@H]1C)C[C@H](O)[C@H]2C(=O)O [Amphotericin B] | – | 89800 nM | 3 µM |
| O=C1CN2Cc3c(ccc(Cl)c3Cl)N=C2N1 [Anagrelide] | 30 µM | 60 nM | – |
| O=C1O[C@H]([C@@H](O)CO)C(O)=C1O [Ascorbic Acid] | 100 µM | 36000 nM | – |
| COC(=O)[C@H](Cc1ccccc1)NC(=O)[C@@H](N)CC(=O)O [Aspartame] (H-Asp-Phe-OMe) | 100 µM | 1000 nM | – |
| COc1ccc(CCN2CCC(Nc3nc4ccccc4n3Cc3ccc(F)cc3)CC2)cc1 [Astemizole] | 3 µM | 8 nM | – |
| O=C(O)c1ccccc1 [Benzoic Acid] | 100 µM | 36000 nM | – |
| O=C(O)CCCC[C@@H]1SC[C@@H]2NC(=O)N[C@@H]21 [Biotin] | 100 µM | 10 nM | – |
| CC(C)C[C@H](NC(=O)[C@H](Cc1ccccc1)NC(=O)c1cnccn1)B(O)O [Bortezomib] | 0.1 µM | 300 nM | – |
| CCN(CC)CCCC(C)Nc1ccnc2cc(Cl)ccc12 (centres unmarked) [Chloroquine] | 3 µM | 960 nM | – |
| COc1cc(N)c(Cl)cc1C(=O)NC1CCN(CCCOc2ccc(F)cc2)CC1OC (centres unmarked) [Cisapride] | 100 µM | 180 nM | – |
| O=C(O)CC(O)(CC(=O)O)C(=O)O [Citric Acid] | 100 µM | 128000 nM | – |
| CN1CCN(C2=Nc3cc(Cl)ccc3Nc3ccccc32)CC1 [Clozapine] | 10 µM | 950 nM | – |
| Cc1ccc(NC(=O)c2ccc(CN3CCN(C)CC3)cc2)cc1Nc1nccc(-c2cccnc2)n1 [Imatinib] | 3 µM | – | – |
| CC(C)C[C@H](N)C(=O)O [Leucine] | 100 µM | – | – |
| O=C1c2c(O)ccc(O)c2C(=O)c2c(NCCNCCO)ccc(NCCNCCO)c21 [Mitoxantrone] | 1 µM | – | – |
| C[C@@H]1C/C=C/C=C/C=C/C=C/[C@H](O[C@@H]2O[C@H](C)[C@@H](O)[C@H](N)[C@@H]2O)C[C@@H]2O[C@](O)(C[C@@H](O)C[C@H]3O[C@@H]3/C=C/C(=O)O1)C[C@H](O)[C@H]2C(=O)O [Natamycin] | 30 µM | – | – |
| CC(=O)O[C@H]1C(=O)[C@@]2(C)[C@H]([C@H](OC(=O)c3ccccc3)[C@]3(O)C[C@H](OC(=O)[C@H](O)[C@@H](NC(=O)c4ccccc4)c4ccccc4)C(C)=C1C3(C)C)[C@]1(OC(C)=O)CO[C@@H]1C[C@@H]2O [Paclitaxel] | 0.03 µM | – | – |
| CNC(=O)c1cc(Oc2ccc(NC(=O)Nc3ccc(Cl)c(C(F)(F)F)c3)cc2)ccn1 [Sorafenib] | 3 µM | – | – |
| O=C(O)C(O)C(O)C(=O)O (centres unmarked) [Tartaric Acid] | 100 µM | – | – |
| CSc1ccc2c(c1)N(CCC1CCCCN1C)c1ccccc1S2 (centres unmarked) [Thioridazine] | 1 µM | – | – |
